Patent EP4603105A1, “PHARMACEUTICAL COMPOSITION CONTAINING CYCLIC COMPOUND HAVING SELECTIVE KRAS INHIBITORY EFFECT AGAINST HRAS AND NRAS” (CHUGAI SEIYAKU KABUSHIKI KAISHA, priority 2022, dated 2024)

What was measured:
[1] = system: human lung cancer strain NCI-H441; format: cell-based
In short: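 Proliferation was scored by […] measured after the reagent was added to cultures kept at 37°C in 5% carbon dioxide.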

[2] = target: GDP-bound NRAS wild-type protein (Homo sapiens, UniProt P01111); test: Binding to NRAS by surface plasmon resonance (SPR), KD and KD ratio to KRAS
In short: (§1)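 Compound binding is evaluated by SPR single-cycle kinetics, with concentrations added intermittently from low to high for 75 s each. Target surfaces carry GDP-loaded biotinylated Avi-RAS at about 100–300 RU, regenerated after each cycle; temperature 30°C. A 1:1 binding model gives KD.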

[3] = target: GDP-bound KRAS wild-type protein (Homo sapiens, UniProt P01116); test: Binding to KRAS by surface plasmon resonance (SPR), dissociation constant KD
In short: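 Affinity is measured by surface plasmon resonance at 30°C against captured, GDP-loaded RAS carrying a biotinylated Avi tag. Compounds are titrated by single-cycle kinetics, and KD comes from a 1:1 fit.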

HRAS wild-type protein = HRAS wild-type protein (Homo sapiens, UniProt P01112); test: Binding to HRAS by surface plasmon resonance (SPR), KD and KD ratio to KRAS
In short: as §1

[4] = ratio of KD value for GDP-bound NRAS wild-type protein to KD value for KRAS (SPR)
[5] = Single Cycle Kinetics, 1:1 binding model
[6] = ratio of KD value for HRAS wild-type protein to KD value for KRAS (SPR)
[7] = ratio of KD for GDP-bound NRAS wild-type protein to KD for KRAS
[8] = ratio of KD for HRAS wild-type protein to KD for KRAS

Chain of GDP-bound NRAS wild-type protein (P01111 whole entry): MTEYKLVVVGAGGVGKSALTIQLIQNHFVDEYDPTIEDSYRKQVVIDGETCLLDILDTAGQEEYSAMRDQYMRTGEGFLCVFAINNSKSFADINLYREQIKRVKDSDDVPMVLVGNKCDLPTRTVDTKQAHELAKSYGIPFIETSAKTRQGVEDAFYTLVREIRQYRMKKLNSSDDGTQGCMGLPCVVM
Chain of GDP-bound KRAS wild-type protein (P01116 1-188 isoform P01116-2): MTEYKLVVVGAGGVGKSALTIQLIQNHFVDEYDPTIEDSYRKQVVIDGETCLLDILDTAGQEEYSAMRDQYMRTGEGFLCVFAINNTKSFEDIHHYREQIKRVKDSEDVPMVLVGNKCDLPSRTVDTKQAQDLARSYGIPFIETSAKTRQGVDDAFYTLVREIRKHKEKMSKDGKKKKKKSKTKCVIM
Chain of HRAS wild-type protein (P01112 whole entry): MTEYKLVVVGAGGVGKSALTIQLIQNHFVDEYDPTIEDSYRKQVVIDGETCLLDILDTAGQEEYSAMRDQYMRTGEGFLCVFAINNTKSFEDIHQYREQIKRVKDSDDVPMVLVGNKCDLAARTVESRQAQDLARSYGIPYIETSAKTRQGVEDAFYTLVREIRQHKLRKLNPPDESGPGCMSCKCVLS

| Structure (SMILES) | IC50 [1] | NRAS /KRAS [2, 4] | Kd [3, 5] | HRAS /KRAS (HRAS wild-type protein; [6]) | NRAS /KRAS [2, 7] | Kd ([3]; Single Cycle Kinetics) | HRAS /KRAS (HRAS wild-type protein; [8]) | Kd ([3]; 1:1 binding model) |
| --- | --- | --- | --- | --- | --- | --- | --- | --- |
| CCCC[C@H]1C(=O)N[C@@H]([C@@H](C)CC)C(=O)N(C)CC(=O)N(C)[C@H]2C/C=C\CCN(C2=O)[C@@H](Cc2ccc(C(F)(F)F)cc2)C(=O)N(C)CC(=O)N[C@@H](CCc2cc(F)c(C(F)(F)F)c(F)c2)C(=O)N2C[C@H](OCC)C[C@H]2C(=O)NC2(CCC2)C(=O)N(C)[C@@H](C2CCCC2)C(=O)N(C)[C@H](C(=O)N(CC)CC)CC(=O)N1C [PP1576] | 7.6 nM | AA (a compound having 20 or more is denoted as AA) | 0.14 nM | A (a compound having 10 or more and less than 20 is denoted as A) | – | – | – | – |
| CC[C@H](C)[C@@H]1NC(=O)[C@H](CC(C)C)N(C)C(=O)C[C@@H](C(=O)N2CCOCC2)N(C)C(=O)[C@H](C2CCCC2)N(C)C(=O)C2(CCC2)NC(=O)[C@@H]2[C@H]3C[C@H]3CN2C(=O)[C@H](CCc2cc(F)c(C(F)(F)F)c(F)c2)NC(=O)CN(C)C(=O)[C@H](Cc2ccc(C(F)(F)F)cc2)N2CCCCC[C@@H](C2=O)N(C)C(=O)CN(C)C1=O [PP0819] | 75.7 nM | – | – | – | A (a compound having 10 or more and less than 20 is denoted as A) | 0.56 nM | B (a compound having 3 or more and less than 10 is denoted as B) | – |
| CCC[C@H]1C(=O)N[C@@H]([C@@H](C)CC)C(=O)N(C)CC(=O)N(C)[C@H]2C/C=C\CCN(C2=O)[C@@H](Cc2ccc(C)cc2)C(=O)N(C)CC(=O)N[C@@H](CCc2cc(Cl)c3c(ccn3C)c2)C(=O)N2C[C@H](OCC)C[C@H]2C(=O)NC2(CC(C)(C)C2)C(=O)N(C)[C@@H](C2CCCC2)C(=O)N(C)[C@H](C(=O)N(C)C)CC(=O)N1C [PP2951] | 37 nM | – | – | – | A (a compound having 10 or more and less than 20 is denoted as A) | – | A (a compound having 10 or more and less than 20 is denoted as A) | 1 nM |
| CCC[C@H]1C(=O)N[C@@H](C2CCCC2)C(=O)N(C)CC(=O)N(C)[C@H]2C/C=C\CCN(C2=O)[C@@H](Cc2ccc(C)cc2)C(=O)N(C)CC(=O)N[C@@H](CCc2ccc(C(F)(F)F)c(OC)c2)C(=O)N2CC3(CC3)C[C@H]2C(=O)NC2(CC(C)(C)C2)C(=O)N(C)[C@@H](C2CCCC2)C(=O)N(C)[C@H](C(=O)N(C)C)CC(=O)N1C [PP2994] | 15.8 nM | – | – | – | AA (a compound having 20 or more is denoted as AA) | – | A (a compound having 10 or more and less than 20 is denoted as A) | 0.21 nM |
| CCC[C@H]1C(=O)N[C@@H]([C@@H](C)CC)C(=O)N(C)CC(=O)N(C)[C@H]2C/C=C\CCN(C2=O)[C@@H](Cc2ccc(C)cc2)C(=O)N(C)CC(=O)N[C@@H](CCc2cc(F)c(C(F)(F)F)c(F)c2)C(=O)N2C[C@H](C)C[C@H]2C(=O)NC2(CCC2)C(=O)N(C)[C@@H](C2CCCC2)C(=O)N(C)[C@H](C(=O)N(C)CC)CC(=O)N1C [PP1862] | 22.2 nM | A (a compound having 10 or more and less than 20 is denoted as A) | 0.12 nM | A (a compound having 10 or more and less than 20 is denoted as A) | – | – | – | – |
| CCC[C@H]1C(=O)N[C@@H]([C@@H](C)CC)C(=O)N(C)CC(=O)N(C)[C@H]2C/C=C\CCN(C2=O)[C@@H](Cc2ccc(C(F)(F)F)cc2)C(=O)N(C)CC(=O)N[C@@H](CCc2ccc3sc(F)c(C)c3c2)C(=O)N2C[C@H](OCC)C[C@H]2C(=O)NC2(CC(C)(C)C2)C(=O)N(C)[C@@H](C2CCCC2)C(=O)N(C)[C@H](C(=O)N(C)C)CC(=O)N1C [PP2948] | 3.3 nM | – | – | – | A (a compound having 10 or more and less than 20 is denoted as A) | – | A (a compound having 10 or more and less than 20 is denoted as A) | 0.55 nM |
| CCC(CC)[C@H]1C(=O)N(C)[C@H](C(=O)N(C)C)CC(=O)N(C)[C@@H](COC)C(=O)N[C@@H]([C@@H](C)CC)C(=O)N(C)CC(=O)N(C)[C@H]2C/C=C\CCN(C2=O)[C@@H](Cc2ccc(C)cc2)C(=O)N(C)CC(=O)N[C@@H](CCc2ccc(Cl)c(Cl)c2)C(=O)N2CC3(CC3)C[C@H]2C(=O)N(C)C2(CC(C)(C)C2)C(=O)N1C [PP2820] | 62.4 nM | – | – | – | AA (a compound having 20 or more is denoted as AA) | – | A (a compound having 10 or more and less than 20 is denoted as A) | 0.94 nM |
